Here are results for 10 compounds from ChEMBL document CHEMBL1156190, “Virtual screening for the identification of novel nonsteroidal glucocorticoid modulators” (J Med Chem, 2010).

For experiment [1], the target named is T1, Glucocorticoid receptor (Homo sapiens, UniProt P04150).
T1 sequence (P04150 whole entry): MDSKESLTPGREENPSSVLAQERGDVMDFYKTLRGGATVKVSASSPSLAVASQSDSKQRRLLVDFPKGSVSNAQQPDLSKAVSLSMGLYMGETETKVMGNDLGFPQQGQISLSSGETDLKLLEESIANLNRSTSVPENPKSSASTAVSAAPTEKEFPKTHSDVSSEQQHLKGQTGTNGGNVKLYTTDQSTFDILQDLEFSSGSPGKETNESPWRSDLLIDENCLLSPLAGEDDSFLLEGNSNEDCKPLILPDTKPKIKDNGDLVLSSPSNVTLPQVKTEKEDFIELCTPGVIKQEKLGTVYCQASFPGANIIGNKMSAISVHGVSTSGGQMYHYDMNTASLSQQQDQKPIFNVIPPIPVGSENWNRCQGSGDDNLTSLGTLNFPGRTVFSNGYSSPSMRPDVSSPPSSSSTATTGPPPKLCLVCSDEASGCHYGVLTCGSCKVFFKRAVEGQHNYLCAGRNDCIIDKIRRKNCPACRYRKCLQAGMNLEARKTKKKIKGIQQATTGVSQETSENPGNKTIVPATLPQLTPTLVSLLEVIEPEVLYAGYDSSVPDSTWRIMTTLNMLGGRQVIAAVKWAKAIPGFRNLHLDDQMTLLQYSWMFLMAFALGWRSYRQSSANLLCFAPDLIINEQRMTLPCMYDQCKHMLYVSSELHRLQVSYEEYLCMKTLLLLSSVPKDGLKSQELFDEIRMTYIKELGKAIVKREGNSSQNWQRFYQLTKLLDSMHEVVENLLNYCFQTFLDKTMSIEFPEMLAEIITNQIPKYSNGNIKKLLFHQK
Kind of experiment: Displacement of [3H]DEX from human glucocorticoid receptor. Background: In a radioligand displacement assay an active substance lowers the binding of a labelled ligand.

For experiment [2], the target named is T2, Glucocorticoid receptor (Homo sapiens) (UniProt P04150).
T2 sequence (whole entry): T1 sequence (P04150 whole entry)
Briefly: Displacement of fluoromone from human glucocorticoid receptor LBD at 10 uM assessed as reduction of maximum polarization by fluorescence polarization assay relative to control. Details: scale not given: the % may be the effect or the level left. On the technique in general: In fluorescence polarisation assays a small probe gives low polarisation when free and higher when bound to something large.

The target in experiment [3] is T3, Estrogen receptor (Homo sapiens) (UniProt P03372).
T3 sequence (whole entry): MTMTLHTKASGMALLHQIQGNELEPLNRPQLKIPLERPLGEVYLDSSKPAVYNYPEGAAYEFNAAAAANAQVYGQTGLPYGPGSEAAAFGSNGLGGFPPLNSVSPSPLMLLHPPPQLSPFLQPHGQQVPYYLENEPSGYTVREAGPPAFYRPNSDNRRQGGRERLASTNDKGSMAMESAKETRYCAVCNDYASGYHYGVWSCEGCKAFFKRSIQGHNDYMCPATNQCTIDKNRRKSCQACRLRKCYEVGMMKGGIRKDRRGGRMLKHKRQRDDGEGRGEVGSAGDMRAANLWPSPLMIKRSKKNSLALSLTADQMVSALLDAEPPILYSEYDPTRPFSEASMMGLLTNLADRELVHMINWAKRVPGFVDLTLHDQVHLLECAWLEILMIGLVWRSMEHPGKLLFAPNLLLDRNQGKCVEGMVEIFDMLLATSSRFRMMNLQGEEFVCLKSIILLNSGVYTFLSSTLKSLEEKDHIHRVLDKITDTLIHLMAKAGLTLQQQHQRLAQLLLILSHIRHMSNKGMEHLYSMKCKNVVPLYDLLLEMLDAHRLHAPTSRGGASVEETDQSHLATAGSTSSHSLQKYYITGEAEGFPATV
Kind of experiment: Displacement of fluoromone from human recombinant ERalpha assessed as reduction of maximum polarization by fluorescence polarization assay.

The target in experiment [4] is Estrogen receptor beta (Homo sapiens) (UniProt Q92731). Kind of experiment: Displacement of fluoromone from human recombinant ERbeta assessed as reduction of maximum polarization by fluorescence polarization assay.
Chain of Estrogen receptor beta (Homo sapiens) (Q92731 whole entry): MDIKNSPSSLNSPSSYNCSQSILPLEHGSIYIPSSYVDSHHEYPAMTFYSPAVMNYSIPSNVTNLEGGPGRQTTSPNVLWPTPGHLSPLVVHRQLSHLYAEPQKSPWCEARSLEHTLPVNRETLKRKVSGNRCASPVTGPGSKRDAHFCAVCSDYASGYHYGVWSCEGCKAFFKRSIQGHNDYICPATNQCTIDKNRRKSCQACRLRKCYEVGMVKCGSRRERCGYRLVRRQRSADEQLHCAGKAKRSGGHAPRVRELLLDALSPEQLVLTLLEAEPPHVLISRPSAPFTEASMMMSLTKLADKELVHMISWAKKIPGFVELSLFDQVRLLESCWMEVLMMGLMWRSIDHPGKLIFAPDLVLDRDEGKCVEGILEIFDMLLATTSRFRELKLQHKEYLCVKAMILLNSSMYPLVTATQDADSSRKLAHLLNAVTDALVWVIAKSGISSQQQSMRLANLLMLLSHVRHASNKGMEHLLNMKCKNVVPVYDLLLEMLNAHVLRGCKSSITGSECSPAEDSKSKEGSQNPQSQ
The target of experiment [5] is T4, Peroxisome proliferator-activated receptor gamma (Homo sapiens) (UniProt P37231).
T4 sequence (whole entry): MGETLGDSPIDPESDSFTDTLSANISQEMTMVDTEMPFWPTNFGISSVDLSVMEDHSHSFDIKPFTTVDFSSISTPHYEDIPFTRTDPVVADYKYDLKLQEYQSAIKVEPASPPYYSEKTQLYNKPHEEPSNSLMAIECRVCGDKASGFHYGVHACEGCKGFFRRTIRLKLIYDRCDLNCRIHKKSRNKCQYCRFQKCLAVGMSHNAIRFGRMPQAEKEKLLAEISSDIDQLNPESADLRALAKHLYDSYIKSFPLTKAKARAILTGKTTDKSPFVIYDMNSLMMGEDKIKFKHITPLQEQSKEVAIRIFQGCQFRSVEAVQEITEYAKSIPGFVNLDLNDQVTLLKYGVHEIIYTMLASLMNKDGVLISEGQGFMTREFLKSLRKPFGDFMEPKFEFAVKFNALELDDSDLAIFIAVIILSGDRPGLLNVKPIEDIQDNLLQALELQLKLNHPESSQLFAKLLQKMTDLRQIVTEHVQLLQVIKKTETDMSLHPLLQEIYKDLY
Kind of experiment: Displacement of fluoromone from human recombinant PPARgamma assessed as reduction of maximum polarization by fluorescence polarization assay.

In experiment [6] the target is T2, Glucocorticoid receptor (Homo sapiens). Kind of experiment: Transrepression activity at glucocorticoid receptor in human A549 cells assessed as inhibition of IL-1-alpha-induced IL6 expression at 10 uM after 24 hrs by ELISA. The class given is cell-based. In general terms: In an ELISA, binding on a coated surface is turned into a signal by an enzyme label.

Calls of active or inactive are those of the source. The rule behind the calls is not given here.

One may read the Ki as the equilibrium dissociation constant of an inhibitor or competing ligand from its target. As to `C=CC[C@@H]1Oc2ccc(OC#N)c(OC)c2-c2ccc3c(c21)C(C)=CC(C)(C)N3`, in experiment [1], the Ki worked out at 0.051 µM. Compound `C#Cc1cccc2c1-c1ccc3c(c1[C@H](CC=C)O2)C(C)=CC(C)(C)N3` returned a Ki in experiment [1] of 0.0069 µM.

Consider `C=C1C(C)CCC(C)(C)[C@@H]1Cc1cc(OC)c(Br)cc1OC(C)=O` (some centres undefined), for which, in experiment [1], affinity was put at a Ki of 4.11 µM.

In experiment [1], `C=C1CCC(Br)C(C)(C)[C@H]1Cc1cc(OC)c(Br)cc1O` (some centres undefined) displayed a Ki of 2.47 µM.

`CC#C[C@@]1(O)CC[C@@]2(Cc3ccccc3)c3ccc(C(=O)NCc4ccncc4)cc3CC[C@@H]2C1` registered a Ki in experiment [1] of 0.002 µM.

In experiment [1], `COc1ccc2c(c1)-c1ccc3c(c1[C@H](c1ccccc1)O2)C(C)=CC(C)(C)N3` showed a Ki of 0.018 µM.

`C#COc1ccc2c(c1OC)-c1ccc3c(c1[C@H](CC=C)O2)C(C)=CC(C)(C)N3` came in with a Ki in experiment [1] of 0.0042 µM. `COc1c(Br)cc2ccccc2c1-c1c(OC)c(CO)cc2ccccc12`: the Activity in experiment [2] amounted to 50%.

For `C=C1CCC(Br)C(C)(C)[C@@H]1Cc1cc(OC)c(Br)cc1O` (some centres undefined), the Ki in experiment [1] amounted to 3.21 µM.

Consider `O=C1CC(c2ccccc2)CC2=C1C(c1cc(Cl)ccc1Cl)Nc1ccccc1N2` (centres undefined), for which, in experiment [2], the Activity stood at 65%. Also, the outcome in experiment [3], in experiment [4] and in experiment [5] was inactive. Further, the inhibition result in experiment [6] was “inactive”.
